According to US8741932B2, “Imidazopyridine derivatives” (Piramal Enterprises Limited, priority 2009, dated 2014):

Experiments:
Assay type in all cases: cell-based
SKOV3 = assay: Cytotoxicity assay (propidium iodide), SKOV3; settings: Homo sapiens, SK-OV-3; SKOV3 (C3b, ovarian); 48 hours
Method: (§1) Cells from cell lines as mentioned in the table given below were seeded at a density of 3000 cells/well in a white opaque 96-well plate. Following incubation at 37° C./5% CO2 for a period of 18-24 hours, the cells were treated with various concentrations (stock solution was prepared in DMSO and subsequent dilutions were made in media as per ATCC guidelines) of the representative compounds of present invention (refer table 3) for a period of 48 hours. At the end of treatment, the spent culture medium was discarded, the cells were washed with 1×PBS and 200 μl of 7 μg/ml propidium iodide was added to each well. The plates were frozen at −70° C. for at least 24 hours. For analysis, the plates were brought to RT, allowed to thaw and were read in PolarStar fluorimeter with the fluorescence setting. The percentage of viable cells in the non treated set of wells was considered to be 100 and the percentage viability following treatment was calculated accordingly. IC50 values were calculated from graphs plotted using these percentages.

HCT116 = assay: Cytotoxicity assay (propidium iodide), HCT116; settings: Homo sapiens, HCT-116; HCT116 (C4b, colon); 48 hours
Method: as §1

T47D = assay: Cytotoxicity assay (propidium iodide), T47D; settings: Homo sapiens; T47D (C6e, breast); 48 hours
Method: as §1

IL-6 [1] = assay: Synovial tissue assay, IL-6; settings: Homo sapiens; synovial tissue cells from rheumatoid arthritis patients, 16 hours
Method: The assay was designed as in the reference, Lancet, 2(8657), 244-7, Jul.
Stock Solution: Compounds of the present invention were dissolved in DMSO to obtain a stock solution of 20 mM.
Synovial tissue was obtained from rheumatoid arthritis patients undergoing knee replacement surgery. The tissue was minced into small pieces and digested in RPMI medium containing 100 U/ml penicillin-G, 100 μg/ml streptomycin, 50 ng/ml amphotericin B (GIBCO; USA), 1.33 mg/ml collagenase Type I (Worthington Biochemical Corporation, New Jersey), 0.5 μg/ml DNAse Type I (Sigma Aldrich; St. Louis, Mo.) and 8.33 U/ml heparin (Biological E. Limited, India) for 3 hours at 37° C., 5% CO2. The digested tissue was filtered through a membrane (mesh size 70 micron; Sigma Aldrich). Subsequently, the cells were washed 3 times and resuspended in complete medium (RPMI supplemented with 5% FBS and 5% human serum-AB+) at a concentration of 1×10^6 cells/ml. All cell washes in this assay were performed using Rosewall Park Memorial Institute (RPMI)-1640 medium (JRH; Australia). For the experiment, 100 μl of cell suspension was added to the wells of a 96-well culture plate. Following cell plating, 100 μl of the culture medium and 1 μl of various concentrations (0.01, 0.03, 0.1, 0.3, 1, 3, 10, 30 and 100 μM) of the compounds of present invention dissolved in DMSO were added to the cells. The final concentration of DMSO was adjusted to 0.5%. For experimental purposes, 1 μl of […] concentrated solution of the compounds of present invention were dissolved in 200 μl cell suspension to achieve a final concentration of 0.01, 0.03, 0.1, 0.3, 1, 3, 10, 30 and 100 μM. The vehicle (0.5% DMSO) was used as control. 10 μM dexamethasone (Sigma Aldrich) or 1 μM 7-hydroxyfluorinide (7HF) were used as standards for the experiments. The plates were incubated for 16 hours at 37° C., 5% CO2. Subsequently, the supernatants were harvested and stored at −70° C. The amounts of TNF-α, IL-6 and interleukin-8 (IL-8) in the supernatants were assayed using OptiEIA ELISA sets, (BD BioSciences Pharmingen). The protocol followed was as per manufacturers instructions. […] The cytotoxicity of test compounds in synovial cells was assessed by MTS assay. Absorbance was measured at 490 nm. Percent cytotoxicity was calculated by the equation: % Cytotoxicity=(A−B)/A×100 where, A is the absorbance of cells treated with DMSO alone and B is the absorbance of cells treated with the test article.

A549 = assay: Cytotoxicity assay (propidium iodide), A549; settings: Homo sapiens; A549 (C1a, lung); 48 hours
IL-6 [2] = assay: Human monocyte assay, LPS-stimulated IL-6; settings: Monocyte; human monocytes, 1 μg/ml LPS, 5 hours
In short: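 Adherent human PBMC-derived monocytes (2×10^4/well) were cultured 48 h, preincubated 30 min with compound or 0.5% DMSO, then stimulated with 1 μg/ml E. coli LPS for 5 h at 37° C. TNF-α and IL-6 in supernatants were measured by ELISA.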

CAPAN1 = assay: Cytotoxicity assay (propidium iodide), CAPAN1; settings: Homo sapiens, CAPAN-1; CAPAN1 (C5b, pancreatic); 48 hours
Method: as §1

SMILES: CN(N=Cc1cnc2ccc(-c3cccnc3)cn12)S(=O)(=O)c1cccc(F)c1 [Example 5, 3-Fluoro-N-methyl-N′-((6-(pyridine-3-yl)imidazo[1,2-a]pyridine-3-yl)methylene)benzenesulfonohydrazide]
- IC50 (SKOV3): 10 to 5000 nM
- IC50 (HCT116): 10 to 5000 nM
- IC50 (T47D): > 5000 nM
- IC50 (IL-6 [1]): 0.01 to 0.3 µM
- IC50 (A549): 10 to 5000 nM
- IC50 (IL-6 [2]): 0.001 to 5 µM
- IC50 (CAPAN1): 10 to 5000 nM

SMILES: CN(N=Cc1cnc2ccc(-c3cccnc3)cn12)S(=O)(=O)c1ccc(F)cc1 [Example 6, 4-Fluoro-N-methyl-N′-((6-(pyridine-3-yl)imidazo[1,2-a]pyridine-3-yl)methylene)benzenesulfonohydrazide]
- IC50 (HCT116): 10 to 5000 nM
- IC50 (T47D): > 5000 nM
- IC50 (IL-6 [1]): 0.3 to 3 µM
- IC50 (A549): 10 to 5000 nM
- IC50 (IL-6 [2]): 0.001 to 5 µM
- IC50 (CAPAN1): 10 to 5000 nM

SMILES: CN(N=Cc1cnc2ccc(-c3cccnc3)cn12)S(=O)(=O)c1cc(F)cc(F)c1 [Example 16, 3,5-Difluoro-N-methyl-N′-((6-(pyridine-3-yl)imidazo[1,2-a]pyridine-3-yl)methylene) benzenesulfonohydrazide]
- IC50 (IL-6 [1]): 0.01 to 0.3 µM
- IC50 (IL-6 [2]): 0.001 to 5 µM

SMILES: Cc1ccc(F)cc1S(=O)(=O)N(C)N=Cc1cnc2ccc(-c3cccnc3)cn12 [Example 21, 5-Fluoro-N, 2-dimethyl-N′-((6-(pyridine-3-yl)imidazo[1,2-a]pyridine-3-yl)methylene) benzenesulfonohydrazide]
- IC50 (SKOV3): 10 to 5000 nM
- IC50 (HCT116): 10 to 5000 nM
- IC50 (IL-6 [1]): 0.01 to 0.3 µM
- IC50 (A549): 10 to 5000 nM
- IC50 (IL-6 [2]): 0.001 to 5 µM
- IC50 (CAPAN1): 10 to 5000 nM

SMILES: Cc1ccc([N+](=O)[O-])cc1S(=O)(=O)N(C)N=Cc1cnc2ccc(-c3cccnc3)cn12 [Example 25]
- IC50 (SKOV3): 10 to 5000 nM
- IC50 (HCT116): 10 to 5000 nM
- IC50 (T47D): 10 to 5000 nM
- IC50 (IL-6 [1]): 0.01 to 0.3 µM
- IC50 (A549): 10 to 5000 nM
- IC50 (IL-6 [2]): 0.001 to 5 µM
- IC50 (CAPAN1): 10 to 5000 nM
